Reference: patent publication US20240215577A1, “FUNGICIDAL PYRIDONES” (FMC Corporation, priority 2021, published 2024)

Legend:
Phakopsora pachyrhizi = experiment: Test D: Asian soybean rust, preventive spray on soybean seedlings; format: in vivo; details: 50 ppm, 100 = 100% disease control, 0 = no control; for pest or weed control at 50 ppm: Phakopsora pachyrhizi, 216 h, read-out: Test D disease control rating
Outline: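 Soybean seedlings sprayed to run-off with compound suspension (ppm, in 50/50 acetone/water with 250 ppm PEG400), inoculated next day with P. pachyrhizi spores, held 24 h saturated at 22°C then 8 days at 22°C. Visual rating 0-100% disease control relative to controls.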

[1] = test system: Blumeria graminis f. sp. tritici; experiment: Test C: wheat powdery mildew, preventive spray on wheat seedlings; format: in vivo; details: 50 ppm, 100 = 100% disease control, 0 = no control; for pest or weed control at 50 ppm: Blumeria graminis, read-out: Test C disease control rating
Outline: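 Preventive assay: wheat seedlings sprayed to run-off with compound at the stated ppm (acetone/water 50/50, 250 ppm PEG400), dusted with B. graminis f. sp. tritici spores the following day, then kept 8 days at 20°C. Disease control visually scored 0-100 versus controls.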

[2] = test system: Puccinia recondita f. sp. tritici; experiment: Test B: wheat leaf rust, preventive spray on wheat seedlings; format: in vivo; details: 50 ppm, 100 = 100% disease control, 0 = no control; for pest or weed control at 50 ppm: Puccinia recondita, read-out: Test B disease control rating
Outline: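 Wheat seedlings sprayed to run-off with compound suspended at set ppm in 50/50 acetone/water (3% acetone pre-dissolution, 250 ppm PEG400); inoculated with rust spores next day. Held 24 h saturated at 20° C., then 7 days in growth chamber at 20° C.; visual rating, 0–100% disease control versus controls.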

Alternaria solani = experiment: Test F: tomato early blight, preventive spray on tomato seedlings; format: in vivo; details: 50 ppm, 100 = 100% disease control, 0 = no control; for pest or weed control at 50 ppm: Alternaria solani, read-out: Test F disease control rating
Outline: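 Compounds in acetone/water (50/50) with 250 ppm PEG400 were sprayed to run-off on tomato seedlings and inoculated with Alternaria solani spores the next day. Plants were held in saturated humidity at 27° C for 48 h, then at 20° C for 3 days. Disease control was rated visually, 0–100, against controls.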

Botrytis cinerea = experiment: Test E: tomato Botrytis, preventive spray on tomato seedlings; format: in vivo; details: 50 ppm, 100 = 100% disease control, 0 = no control; for pest or weed control at 50 ppm: Botrytis cinerea, read-out: Test E disease control rating
Outline: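 Compounds dissolved in acetone (3% of final volume), suspended in 50/50 acetone/water with 250 ppm PEG400, sprayed to run-off on seedlings. Spore inoculation next day; 48 h saturated atmosphere at 20° C, then 3 days at 24° C. Visual disease rating 0–100% control relative to controls.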

Zymoseptoria tritici = experiment: Test A: wheat leaf blotch, preventive spray on wheat seedlings; format: in vivo; details: 50 ppm, 100 = 100% disease control, 0 = no control; for pest or weed control at 50 ppm: Zymoseptoria tritici, read-out: Test A disease control rating
Outline: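 Wheat seedlings were sprayed to run-off with compound in acetone/water 50/50 containing 250 ppm PEG400 and inoculated with Z. tritici spores the next day. Plants were held 48 h saturated at 24 °C, then 17 days at 20 °C. Disease was rated 0–100% control relative to controls.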

| Structure (SMILES) | pest or weed control at 50 ppm (Phakopsora pachyrhizi) [%] | pest or weed control at 50 ppm [1] [%] | pest or weed control at 50 ppm [2] [%] | pest or weed control at 50 ppm (Alternaria solani) [%] | melting point [°C] | pest or weed control at 50 ppm (Botrytis cinerea) [%] | pest or weed control at 50 ppm (Zymoseptoria tritici) [%] | Test D disease control rating (Phakopsora pachyrhizi) [%] | Test C disease control rating [1] [%] | Test B disease control rating [2] [%] | Test F disease control rating (Alternaria solani) [%] | Test E disease control rating (Botrytis cinerea) [%] | Test A disease control rating (Zymoseptoria tritici) [%] |
| --- | --- | --- | --- | --- | --- | --- | --- | --- | --- | --- | --- | --- | --- |
| COc1cc(OC)c(Cl)c(-c2cn(C)c(=O)c(Cl)c2-c2ccc(F)cc2F)c1 [Compound 29, 3-chloro-5-(2-chloro-3,5-dimethoxyphenyl)-4-(2,4-difluorophenyl)-1-methyl-2(1H)-pyridinone] | 100 | 99 | 100 | 99 | 189 to 192 | 94 | 100 | – | – | – | – | – | – |
| COc1cc(OC)c(F)c(-c2cn(C)c(=O)c(Cl)c2-c2ccc(F)cc2F)c1 [Compound 51, 3-chloro-4-(2,4-difluorophenyl)-5-(2-fluoro-3,5-dimethoxyphenyl)-1-methyl-2(1H)-pyridinone] | 99 | 98 | 100 | 100 | 155 to 158 | 98 | 100 | – | – | – | – | – | – |
| COc1cc(OC)c(Cl)c(-c2cn(C)c(=O)c(C)c2-c2ccc(F)cc2Cl)c1 [Compound 13, 5-(2-chloro-3,5-dimethoxyphenyl)-4-(2-chloro-4-fluorophenyl)-1,3-dimethyl-2(1H)-pyridinone] | 100 | 100 | 100 | 100 | 140 to 143 | 94 | 100 | – | – | – | – | – | – |
| COc1cc(OC)c(Br)c(-c2cn(C)c(=O)c(Cl)c2-c2ccc(F)cc2F)c1 [Compound 9, 5-(2-bromo-3,5-dimethoxyphenyl)-3-chloro-4-(2,4-difluorophenyl)-1-methyl-2(1H)-pyridinone] | 100 | 99 | 100 | 100 | 211 to 214 | 98 | 100 | – | – | – | – | – | – |
| COc1ccc(Cl)c(-c2cn(C)c(=O)c(Cl)c2-c2ccc(F)cc2F)c1 [Compound 30, 3-chloro-5-(2-chloro-5-methoxyphenyl)-4-(2,4-difluorophenyl)-1-methyl-2(1H)-pyridinone] | 100 | 100 | 100 | 99 | 192 to 195 | 94 | 100 | – | – | – | – | – | – |
| COc1ccc(Br)c(-c2cn(C)c(=O)c(Cl)c2-c2ccc(F)cc2F)c1 [Compound 20, 5-(2-bromo-5-methoxyphenyl)-3-chloro-4-(2,4-difluorophenyl)-1-methyl-2(1H)-pyridinone] | 97 | 98 | 100 | 99 | 227 to 230 | 98 | 100 | – | – | – | – | – | – |
| Cc1c(-c2ccc(F)cc2Cl)c(-c2cc(F)ccc2Cl)cn(C)c1=O [Compound 18] | – | – | – | – | – | – | – | 96 | 94 | 100 | 99 | 98 | 100 |
| COc1cc(OC)cc(-c2cn(OC)c(=O)c(Cl)c2-c2ccc(F)cc2Cl)c1 [Compound 19, 3-chloro-4-(2-chloro-4-fluorophenyl)-5-(3,5-dimethoxyphenyl)-1-methoxy-2(1H)-pyridinone] | 11 | 0 | 99 | 0 | – | 98 | 58 | – | – | – | – | – | – |
| CCc1c(-c2ccc(F)cc2Cl)c(-c2cc(OC)ccc2Cl)cn(C)c1=O [Compound 47] | – | – | – | – | – | – | – | 51 | 99 | 100 | 99 | 91 | 81 |
